Reference: article PMC12125794 (Annals of Clinical Microbiology and Antimicrobials, 2025)

Columns and labels:
[1] = molecular target: T1, KPC-2 (Klebsiella pneumoniae, UniProt Q9F663); type: biochemical
[2] = molecular target: T1, KPC-2; type: biochemical; remark: listed apart in the source

T1 sequence (Q9F663 25-293 limits assumed): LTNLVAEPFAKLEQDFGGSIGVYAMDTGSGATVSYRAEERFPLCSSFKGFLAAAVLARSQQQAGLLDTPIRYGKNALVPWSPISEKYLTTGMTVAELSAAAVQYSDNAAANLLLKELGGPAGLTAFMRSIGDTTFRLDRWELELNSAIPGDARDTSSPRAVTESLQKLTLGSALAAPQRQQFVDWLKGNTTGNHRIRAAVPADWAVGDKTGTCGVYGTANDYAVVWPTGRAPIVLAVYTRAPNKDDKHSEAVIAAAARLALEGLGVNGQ

SMILES | hydrolysis progress curves at 300 nm, 30 nM purified enzyme, 50 μM meropenem [1] | steady-state hydrolysis kinetics (Michaelis-Menten), purified enzyme [2]
C[C@@H](O)[C@H]1C(=O)N2C(C(=O)O)=C(S[C@@H]3CN[C@H](C(=O)N(C)C)C3)[C@H](C)[C@H]12 [meropenem] | Compared with KPC-2, catalytic efficiencies of KPC-87 for nitrocefin and meropenem decreased sharply | 
O=C(Cc1cccs1)N[C@@H]1C(=O)N2C(C(=O)O)=C(/C=C/c3ccc([N+](=O)[O-])cc3[N+](=O)[O-])CS[C@H]12 [nitrocefin] |  | Compared with KPC-2, catalytic efficiencies of KPC-87 for nitrocefin and meropenem decreased sharply
